Results published in article PMC10794144, “A novel antibiotic class targeting the lipopolysaccharide transporter” (Nature, 2024).
≈ marks a conversion by molar mass, not a printed value.

Columns and labels:
A. baumannii = experiment: microbe, parasite or virus in culture
Method: (§1) MIC determinations were performed using the broth microdilution method and in line with CLSI guidelines M07 and M100 (refs. [37],[38]). Bacterial inocula were prepared by diluting a 0.5 McFarland suspension in CAMHB or lysogeny broth (LB) specifically for A. baylyi isolates. […] MIC values of all of the tested antibiotics were read as the lowest compound concentration inhibiting bacterial growth by naked eye or beyond which the OD600 ceased to decrease.

E. coli ATCC 25922 = experiment: microbe, parasite or virus in culture
Method: as §1

Question: With `CN1C(=O)[C@H](CCCN)NC(=O)[C@H](CCCN)NCc2ccccc2Sc2ccccc2CNC(=O)[C@@H]1Cc1c[nH]c2ccccc12` [RO7036668] as the compound, how does the MIC range (A. baumannii; 10 MDR isolates, CAMHB, MCPs read at 80% growth inhibition) read?
Answer: Its MIC range is 1 to 16 µg/mL.

Question: What about the MIC90 (A. baumannii; Acinetobacter baumannii) of the same compound?
Answer: Its MIC90 is 16 µg/mL (≈ 24.4 µM).

Question: And the MIC (A. baumannii; Acinetobacter baumannii, ATCC19606, ATCC 19606, CAMHB, MCPs read at 80% growth inhibition)?
Answer: Its MIC is 4 µg/mL (≈ 6.1 µM).

Question: And the MIC (E. coli ATCC 25922; CAMHB, mode of at least three replicates (RO7036668 one replicate))?
Answer: Its MIC is over 64 µg/mL.

Question: And the MIC (E. coli ATCC 25922; Escherichia coli, ATCC25922)?
Answer: Its MIC is over 64 µg/mL.
